According to PubChem BioAssay (NCI):
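How tested: cells in 96-well plates exposed to compound for 48 hours at five concentrations. Definition used: TGI = concentration required for complete inhibition of growth.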

How the values were obtained:
Experiment in all cases: NCI anticancer screen, dose series, 48 h
[1] = test system: HT29 colon
[2] = test system: SNB-75 CNS
[3] = test system: OVCAR-4 ovarian
[4] = test system: HS 578T breast
[5] = test system: SK-MEL-28 melanoma
[6] = test system: DU-145 prostate
[7] = test system: MCF7 breast
[8] = test system: PC-3 prostate
[9] = test system: NCI-H522 lung
[10] = test system: LOX IMVI melanoma
[11] = test system: CCRF-CEM leukemia
[12] = test system: A549 NSCLC
[13] = test system: RPMI-8226 leukemia

Work on `CN(C)P(=O)(Oc1ccc(CC(NC(=O)OCc2ccccc2)C(=O)OCc2ccccc2)cc1)N(C)C` (configuration not stated) yielded a TGI [1] of 24.6 µM, a TGI [2] of 33.3 µM and a TGI [3] of 39.1 µM. The TGI [4] was 67.5 µM, the TGI [5] was 34.4 µM and the TGI [6] was 29.2 µM. For the same compound, the TGI [7] was 31.6 µM, the TGI [8] was 29.9 µM and the TGI [9] was 30.9 µM. It also gave a TGI [10] of 34.5 µM, a TGI [11] of 7.56 µM and a TGI [12] of 38.2 µM. For the same compound, the TGI [13] was 15.2 µM.
`CCOC(=O)C(C)NC(=O)C(C)NC(=O)C(C)NC(=O)C(C)NC(=O)C(C)NC(=O)OCc1ccccc1` (configuration not stated) was tested, and the TGI [1] was > 100 µM, the TGI [2] was > 100 µM and the TGI [3] was > 100 µM. For the same compound, the TGI [4] was > 100 µM, the TGI [5] was > 100 µM and the TGI [6] was > 100 µM. The TGI [7] was > 100 µM, the TGI [8] was > 100 µM and the TGI [9] was > 100 µM. The TGI [10] was > 100 µM, the TGI [11] was > 100 µM and the TGI [12] was > 100 µM. For the same compound, the TGI [13] was > 100 µM.
With `Cc1oc2c(Cl)cc(O)c(Cl)c2c2cccc1-2` the TGI [1] was > 100 µM, the TGI [2] was 20.7 µM and the TGI [3] was 36.9 µM. For the same compound, the TGI [4] was > 100 µM, the TGI [5] was 57.5 µM and the TGI [6] was 27.5 µM. For the same compound, the TGI [7] was > 100 µM, the TGI [8] was > 100 µM and the TGI [9] was 83.3 µM. For the same compound, the TGI [10] was 36.1 µM, the TGI [11] was 95.3 µM and the TGI [12] was > 100 µM. It also gave a TGI [13] of 36.6 µM.
With `O=c1[nH]nc(Cc2ccccc2)n1/N=C\c1ccccc1` the TGI [1] was > 100 µM, the TGI [2] was > 100 µM and the TGI [3] was > 100 µM. The TGI [4] was > 100 µM, the TGI [5] was > 100 µM and the TGI [6] was > 100 µM. For the same compound, the TGI [7] was > 100 µM, the TGI [8] was > 100 µM and the TGI [9] was > 100 µM. For the same compound, the TGI [10] was > 100 µM, the TGI [11] was > 100 µM and the TGI [12] was > 100 µM. For the same compound, the TGI [13] was > 100 µM.
